Holding throughout (assay type): cell-based
One experiment concerns IL-6 (THP-1 cells). The experiment is described as follows: IL-6 inhibition in LPS-stimulated THP-1 cells (HTRF). The settings on record: Homo sapiens; IL-6 in THP-1 cells, LPS 500 ng/mL, 22 hours. As to the method:
Human monocyte cell line (THP-1 cells; Catalog # TIB-202, ATCC, Manassas, Va.) were cultured in Roswell Park Memorial Institute (RPMI) 1640 Medium (Catalog #21870-100, Buffalo, N.Y.) with 1% L-glutamine, 1% HEPES, 1% Sodium Pyruvate, 2% Sodium Bicarbonate supplemented with 100 units/mL penicillin, 50 μg/mL streptomycin, 2-mercaptoethanol (0.05 mM) [basal medium] and 10% fetal bovine serum (Catalog #16140089, Life Technologies, Carlsbad, Calif.) at 37° C. and 5% CO2.
THP-1 cells were cultured in basal media with 1% FBS for 24 hours before the start of the assay. Each compound was dissolved in DMSO as a 10 mM stock and used to prepare compound source plates. Serial dilution (1:3, 10-point dose-response curves starting from 10 μM) and compound transfer was performed using the ECHO 550 (Labcyte, Sunnyvale, Calif.) into 384-well white low volume assay plates (Greiner Bio-One) with appropriate DMSO backfill for a final DMSO concentration of 0.1%. THP-1 cells were plated at 5000 cells/well in the 384-well plates and incubated at 37° C. for 2 h. 500 ng/mL of LPS was added after 2 hours and cells were incubated for another 22 hours at 37° C. Plates were spun in a centrifuge for 1 minute at […] and a mixture of anti-IL6 XL665, and anti-IL6 Cryptate diluted in reconstitution buffer (Cisbio Inc.) was added to each well. Following incubation for 3 hrs at room temperature, Homogeneous Time-Resolved Fluorescence (HTRF) was measured using the Envision (Perkin Elmer) at 665 nm and […]. The ratio of fluorescence at 665 nm to 620 nm was used as a readout for IL6 quantification. All samples were processed in duplicate. Readings were normalized to DMSO treated cells and normalized activities were utilized for EC50 calculations using the dose-response log (inhibitor) vs. response-variable slope (four parameters) nonlinear regression feature available in GraphPad Prism 5.0 (or Dotmatics). For EC50 of >10 μM, the percent inhibition at 10 μM is provided.

The next experiment has as its system SW480 colon cancer cells. The experiment is described as follows: Cell viability assay (CellTiter-Blue). The settings on record: Homo sapiens, 96 h, four days. As to the method:
Representative compounds were screened using the following assay procedure to assess the effect on cell viability as described below.
Each compound was dissolved in DMSO as a 10 mM stock and used to prepare compound source plates. Serial dilution (1:3, 8-point dose-response curves from 10 μM to 0.0045 μM) and compound transfer was performed using the ECHO 550 (Labcyte, Sunnyvale, Calif.) into 96-well clear bottom, black-walled plates (Corning-Costar).
Approximately 2×10^3 SW480 colon cancer cells were seeded into each well and allowed to incubate in the presence or absence of compound for four days at 37° C./5% CO2. Eight replicates of DMSO-treated cells served as controls and cells treated with compound were performed in duplicate.
After incubation, 20 μL of CellTiter-Blue (Promega) was added to each well allowed to incubate for approximately 3 hours. This reagent was a buffered solution which contains resazurin, metabolically active cells were able to reduce rezarurin (blue) into resorufin (pink) which was highly fluorescent. This measured fluorescence was used as a readout for cell viability.
After incubation, the plates were read at Ex 560 nm Em 590 nm (Cytation 3, BioTek). Dose-response curves were generated and EC50 concentration values were calculated using non-linear regression curve fit in the GraphPad Prism (San Diego, Calif.) or Dotmatics' Studies Software (Bishops Stortford, UK). For EC50 of >10 μM, the percent inhibition at 10 μM is provided.
Background: Alamar Blue is a resazurin reagent that responds to reducing activity.

In experiment [1] the test system is primary human fibroblasts derived from IPF patients (LL29 cells) treated with TGF-β1. In words: Inhibition of fibrotic process, αSMA staining in TGF-β1 treated LL29 fibroblasts. The settings on record: Fibroblast, 96 h, % αSMA positive LL29 cells, TGF-β1 20 ng/mL, 4 days. An excerpt:
Representative compounds were screened using primary human fibroblasts (derived from IPF patients) treated with TGF-β1 to determine their ability to inhibit the fibrotic process.
Primary human fibroblasts derived from IPF patients (LL29 cells) [^1Xiaoqiu Liu, et. al., “Fibrotic Lung Fibroblasts Show Blunted Inhibition by cAMP Due to Deficient cAMP Response Element-Binding Protein Phosphorylation”, Journal of Pharmacology and Experimental Therapeutics (2005), 315(2), 678-687; ^2Watts, K. L., et. al., “RhoA signaling modulates cyclin D1 expression in human lung fibroblasts; implications for idiopathic pulmonary fibrosis”, Respiratory Research (2006), 7(1), 88] were obtained from American Type Culture Collection (ATCC) and expanded in F12 medium supplemented with 15% Fetal Bovine Serum and Penicillin/Streptomycin.
Each compound was dissolved in DMSO as a 10 mM stock and used to prepare compound source plates. Serial dilution (1:2, 11-point dose-response curves from 10 μM to 1.87 nM) and compound transfer was performed using the ECHO 550 (Labcyte, Sunnyvale, Calif.) into 384-well clear bottom assay plates (Greiner Bio-One) with appropriate DMSO backfill for a final DMSO concentration of 0.1%. LL29 cells are plated at 1,500 cells/well in 80 μL/well F12 medium supplemented with 1% Fetal Bovine Serum. One hour after addition of the cells, TGF-β1 (Peprotech; 20 ng/mL) was added to the plates to induce fibrosis (ref. 1 and 2 above). Wells treated with TGF-β1 and containing DMSO were used as controls. Cells were incubated at 37° C. and 5% CO2 for 4 days. Following incubation for 4 days, SYTOX green nucleic acid stain (Life Technologies [Thermo Fisher Scientific]) was added to the wells at a final concentration of 1 μM and incubated at room temperature for 30 min. Cells were then fixed using 4% formaldehyde (Electron Microscopy Sciences), washed 3 times with PBS followed by blocking and permeabilization using 3% Bovine Serum Albumin (BSA; Sigma) and 0.3% Triton X-100 (Sigma) in PBS. Cells were then stained with antibody specific to α-smooth muscle actin (αSMA; Abcam) (ref. 1 and 2 above) in 3% Bovine Serum Albumin (BSA; Sigma) and 0.3% Triton X-100 (Sigma) in PBS, and incubated overnight at 4° C. Cells were then washed 3 times with PBS, followed by incubation with Alexa Flor-647 conjugated secondary antibody (Life Technologies [Thermo Fisher Scientific]) and DAPI at room temperature for 1 hour. Cells were then washed 3 times with PBS and plates were sealed for imaging. αSMA staining was imaged by excitation at 630 nm and emission at 665 nm and quantified using the Compartmental Analysis program on the CellInsight CX5 (Thermo Scientific). Dead or apoptotic cells were excluded from analysis based on positive SYTOX green staining. % of total cells positive for αSMA were counted in each well and normalized to the average of 11 wells treated with TGF-β1 on the same plate using Dotmatics' Studies Software. The normalized averages (fold change over untreated) of 3 replicate wells for each compound concentration were used to create dose-responses curves and EC50 values were calculated using non-linear regression curve fit in the Dotmatics' Studies Software. For EC50 of >10 μM, the percent inhibition at 10 μM is provided.

Experiment [2] deals with Wnt activity (Sp5-Luc reporter, SW480 colon carcinoma cells). In words: Wnt activity screening assay, Sp5-Luc reporter gene in SW480 cells. The settings on record: Homo sapiens; for pEC50: overnight incubation. An excerpt: The screening assay for Wnt activity is described as follows. Reporter cell lines can be generated by stably transducing cancer cell lines (e.g., colon cancer) or primary cells (e.g., IEC-6 intestinal cells) with a lentiviral construct that includes a Wnt-responsive promoter driving expression of the firefly luciferase gene.
SW480 colon carcinoma cells were transduced with a lentiviral vector expressing luciferase with a human Sp5 promoter consisting of a sequence of eight TCF/LEF binding sites. SW480 cells stably expressing the Sp5-Luc reporter gene and a hygromycin resistance gene were selected by treatment with 150 μg/mL of hygromycin for 7 days. These stably transduced SW480 cells were expanded in cell culture and used for all further screening activities. Each compound was dissolved in DMSO as a 10 mM stock and used to prepare compound source plates. Serial dilution (1:3, 10-point dose-response curves starting from 10 μM) and compound transfer was performed using the ECHO 550 (Labcyte, Sunnyvale, Calif.) into 384-well white solid bottom assay plates (Greiner Bio-One) with appropriate DMSO backfill for a final DMSO concentration of 0.1%. For Sp5-Luc reporter gene assays, the cells were plated at 4,000 cells/well in 384-well plates with medium containing 1% fetal bovine serum and incubated overnight at 37° C. and 5% CO2. Following incubation, 20 μl of BrightGlo luminescence reagent (Promega) was added to each well of the 384-well assay plates. The plates were placed on an orbital shaker for 2 min and then luminescence was quantified using the Envision (Perkin Elmer) plate reader. Readings were normalized to DMSO only treated cells, and normalized activities were utilized for EC50 calculations using the dose-response log (inhibitor) vs. response-variable slope (four parameters) nonlinear regression feature available in GraphPad Prism 5.0 (or Dotmatics). For EC50 of >10 μM, the percent inhibition at 10 μM is provided.
A general note: In a reporter assay the amount or activity of a reporter protein is the signal.

Each structure is given as a SMILES string. pEC50: −log10 of the molar value.

A word on the pEC50: it is −log10 of the EC50, conventionally taken in molar units. A low value points to a large EC50. As a reminder, the inhibition is how much of the control response was suppressed.

Consider `c1csc(-c2ccnc3[nH]c(-c4n[nH]c5cnc(-c6cncc(CN7CCCCC7)c6)cc45)cc23)c1` [Compound 351, 5-(5-(Piperidin-1-ylmethyl)pyridin-3-yl)-3-(4-(thiophen-2-yl)-1H-pyrrolo [2,3-b]pyridin-2-yl)-1H-pyrazolo[3,4-c]pyridine], for which the pEC50 in the experiment on IL-6 (THP-1 cells) is 6.74; in the experiment with SW480 colon cancer cells it was 5.39; in experiment [1] it was 5.59; in experiment [2] it was 5.16.

As to `Cc1ccncc1-c1cc2c(-c3cc4c(-c5ccc(F)cc5)ccnc4[nH]3)n[nH]c2cn1` [Compound 33, 3-(4-(4-Fluorophenyl)-1H-pyrrolo[2,3-b]pyridin-2-yl)-5-(4-methylpyridin-3-yl)-1H-pyrazolo[3,4-c]pyridine], the pEC50 is 5.39 with IL-6 (THP-1 cells), 5.98 with SW480 colon cancer cells, 6.84 in experiment [1] and 6.19 in experiment [2].

For `c1ccc(-c2cc3c(-c4cc5c(-c6cccs6)ccnc5[nH]4)n[nH]c3cn2)nc1` [Compound 364, 5-(Pyridin-2-yl)-3-(4-(thiophen-2-yl)-1H-pyrrolo[2,3-b]pyridin-2-yl)-1H-pyrazolo[3,4-c]pyridine], the pEC50 was 5.99 in the experiment on IL-6 (THP-1 cells), 6.15 in the experiment with SW480 colon cancer cells, 6.39 in experiment [1] and 6.20 in experiment [2].

Take `c1cncc(-c2cc3c(-c4cc5c(N6CCCCC6)ccnc5[nH]4)n[nH]c3cn2)c1` [Compound 172, 3-(4-(Piperidin-1-yl)-1H-pyrrolo[2,3-b]pyridin-2-yl)-5-(pyridin-3-yl)-1H-pyrazolo[3,4-c]pyridine]: the pEC50 in the experiment with IL-6 (THP-1 cells) was 5.47; with SW480 colon cancer cells, 5.45; in experiment [1], 5.76; in experiment [2], 5.65.

For the compound `CC(C)C(=O)Nc1cncc(-c2cc3c(-c4cc5c(N6CCCCC6)ccnc5[nH]4)n[nH]c3cn2)c1` [Compound 177, N-(5-(3-(4-(Piperidin-1-yl)-1H-pyrrolo[2,3-b]pyridin-2-yl)-1H-pyrazolo[3,4-c]pyridin-5-yl)pyridin-3-yl)isobutyramide], the pEC50 was 5.01 in the experiment with IL-6 (THP-1 cells), 5.97 with SW480 colon cancer cells, 5.83 in experiment [1] and 6.06 in experiment [2].

As to `Fc1ccccc1-c1ccnc2[nH]c(-c3n[nH]c4cnc(-c5ccccn5)cc34)cc12` [Compound 84, 3-(4-(2-Fluorophenyl)-1H-pyrrolo[2,3-b]pyridin-2-yl)-5-(pyridin-2-yl)-1H-pyrazolo[3,4-c]pyridine], the pEC50 in the experiment on IL-6 (THP-1 cells) was 5.19; in the experiment on SW480 colon cancer cells, 6.39; in experiment [1], 6.25; in experiment [2], 6.55.

Regarding `CC(C)(C)CC(=O)Nc1cncc(-c2cc3c(-c4cc5c(N6CCCCC6)ccnc5[nH]4)n[nH]c3cn2)c1` [Compound 184, 3,3-Dimethyl-N-(5-(3-(4-(piperidin-1-yl)-1H-pyrrolo[2,3-b]pyridin-2-yl)-1H-pyrazolo[3,4-c]pyridin-5-yl)pyridin-3-yl)butanamide], the pEC50 was 5.48 in the experiment with IL-6 (THP-1 cells), 5.37 in the experiment on SW480 colon cancer cells, 5.71 in experiment [1] and 5.49 in experiment [2].

Turning to `O=C(Nc1cncc(-c2cc3c(-c4cc5c(-c6ccoc6)ccnc5[nH]4)n[nH]c3cn2)c1)C1CC1` [Compound 328, N-(5-(3-(4-(Furan-3-yl)-1H-pyrrolo[2,3-b]pyridin-2-yl)-1H-pyrazolo[3,4-c]pyridin-5-yl)pyridin-3-yl)cyclopropanecarboxamide], the pEC50 in the experiment with IL-6 (THP-1 cells) is 6.27; in the experiment on SW480 colon cancer cells, 6.97; in experiment [1], 7.43; in experiment [2], 6.92.

For the compound `Fc1ccc(-c2ccnc3[nH]c(-c4n[nH]c5cnc(-c6cncc(CN7CCC(F)(F)C7)c6)cc45)cc23)cc1` [Compound 54, 5-(5-((3,3-Difluoropyrrolidin-1-yl)methyl)pyridin-3-yl)-3-(4-(4-fluorophenyl)-1H-pyrrolo[2,3-b]pyridin-2-yl)-1H-pyrazolo[3,4-c]pyridine], the pEC50 was 5.69 with IL-6 (THP-1 cells), 5.86 in the experiment on SW480 colon cancer cells, 5.95 in experiment [1] and below 5.00 in experiment [2]. Besides, in experiment [2] (at 10 μM, given where EC50 >10 μM, read-out: percent inhibition at 10 μM), the inhibition at 10 µM was determined as 28.1%.

The values are drawn from patent publication US10285982B2, “3-(1H-pyrrolo[2,3-B]pyridin-2-yl)-1H-pyrazolo[3,4-C]pyridines and therapeutic uses thereof” (Samumed, LLC, priority 2015, dated 2019).
